Experimental data reported in US12281225B2, “Process for preparing stable polymers containing vinylimidazole” (BASF SE, priority 2018, dated 2025).

Legend:
[1] = Analysis of active substance: preservative concentration before and after storage in VI-containing polymer solution; assay type: physicochemical; settings: for active-substance concentration, 0 d, RT: before storage; for active-substance concentration, 14 d, 40° C.: storage 14 d at 40° C.; for active-substance concentration, 28 d, 40° C.: storage 28 d at 40° C.; for active-substance concentration, 60 d 40° C.: storage 60 d at 40° C.
Method in brief: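 Preservatives (MIT, BIT, CMIT, OIT, DCOIT, iodopropynyl butyl carbamate) in aqueous vinylpyrrolidone–vinylimidazole copolymer solution quantified after dilution by isocratic RP18 chromatography with UV detection, using an acid-methanol eluent.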

[2] = Iodine color number according to DIN 6162:2014-09; assay type: physicochemical
[3] = system: Bacteria: Escherichia coli, Staphylococcus aureus, Pseudomonas aeruginosa, Pseudomonas putida, Burkholderia cepacia, Alcaligenes faecalis; test: Preservation test with periodic inoculation, bacteria assessment; assay type: cell-based; settings: for Start sample measurement, bact. assess., 4th inoculation: freshly formulated; for 60 d 40° C., bact. assess., 4th inoculation: sample stored 60 d at 40° C.
Method in brief: (§1)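 Semiquantitative growth scores (−− no growth to ++ strong growth) from weekly agar streaks incubated 3 days at 25 °C. Preserved polymer samples got four weekly 0.5 ml inoculations (titer 10^9 organisms/ml), the first two days after preservative addition; testing began fresh and after 60-day storage at 40 °C.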

[4] = system: Yeast: Candida albicans, Candida valida, Rhodotorula rura, Saccharomyces cerevisiae; test: Preservation test with periodic inoculation, yeast assessment; assay type: cell-based; settings: for Start sample measurement, yeast assess., 4th inoculation: freshly formulated; for 60 d 40° C., yeast assess., 4th inoculation: sample stored 60 d at 40° C.
Method in brief: as §1

[5] = Polymer P5 (HP56) with stabilizer

Q: With `CCCCNC(=O)OCC#CI` [Iodopropynyl butyl carbamate, iodopropynyl butyl carbamate] as the compound, how does the “active-substance concentration, 0 d, RT” value ([1]; in Polymer P1) read?
A: 250 ppm

Q: What about the “active-substance concentration, 14 d, 40° C.” value ([1]; in Polymer P1) of the same compound?
A: 206 ppm

Q: What about the “active-substance concentration, 28 d, 40° C.” value ([1]; in Polymer P1) of the same compound?
A: 176 ppm

Q: What about the “active-substance concentration, 60 d 40° C.” value ([1]; in Polymer P1) of the same compound?
A: 84 ppm

Q: What about the “active-substance concentration, 0 d, RT” value ([1]; in Polymer P2) of the same compound?
A: 250 ppm

Q: What about the “active-substance concentration, 14 d, 40° C.” value ([1]; in Polymer P2) of the same compound?
A: 225 ppm

Q: And the “active-substance concentration, 28 d, 40° C.” value ([1]; in Polymer P2)?
A: 183 ppm

Q: And the “active-substance concentration, 60 d 40° C.” value ([1]; in Polymer P2)?
A: 122 ppm

Q: And the “active-substance concentration, 0 d, RT” value ([1]; in Polymer P3)?
A: 250 ppm

Q: What about the “active-substance concentration, 14 d, 40° C.” value ([1]; in Polymer P3) of the same compound?
A: 221 ppm

Q: What about the “active-substance concentration, 28 d, 40° C.” value ([1]; in Polymer P3) of the same compound?
A: 190 ppm

Q: What about the “active-substance concentration, 60 d 40° C.” value ([1]; in Polymer P3) of the same compound?
A: 107 ppm

Q: What about the “active-substance concentration, 0 d, RT” value ([1]; in Polymer P4) of the same compound?
A: 250 ppm

Q: What about the “active-substance concentration, 14 d, 40° C.” value ([1]; in Polymer P4) of the same compound?
A: 212 ppm

Q: And the “active-substance concentration, 28 d, 40° C.” value ([1]; in Polymer P4)?
A: 188 ppm

Q: And the “active-substance concentration, 60 d 40° C.” value ([1]; in Polymer P4)?
A: 101 ppm

Q: And the “active-substance concentration, 0 d, RT” value ([1]; in Polymer P5 (HP56))?
A: 250 ppm

Q: What about the “active-substance concentration, 14 d, 40° C.” value ([1]; in Polymer P5 (HP56)) of the same compound?
A: 206 ppm

Q: And the “active-substance concentration, 28 d, 40° C.” value ([1]; in Polymer P5 (HP56))?
A: 176 ppm

Q: And the “active-substance concentration, 60 d 40° C.” value ([1]; in Polymer P5 (HP56))?
A: 84 ppm

Q: And the “active-substance concentration, 0 d, RT” value ([1]; in Polymer P6)?
A: 250 ppm

Q: What about the “active-substance concentration, 14 d, 40° C.” value ([1]; in Polymer P6) of the same compound?
A: 201 ppm

Q: And the “active-substance concentration, 28 d, 40° C.” value ([1]; in Polymer P6)?
A: 174 ppm

Q: What about the “active-substance concentration, 60 d 40° C.” value ([1]; in Polymer P6) of the same compound?
A: 80 ppm

Q: What about the “active-substance concentration, 0 d, RT” value ([1]; in Polymer P7) of the same compound?
A: 250 ppm

Q: And the “active-substance concentration, 14 d, 40° C.” value ([1]; in Polymer P7)?
A: 207 ppm

Q: And the “active-substance concentration, 28 d, 40° C.” value ([1]; in Polymer P7)?
A: 178 ppm

Q: And the “active-substance concentration, 60 d 40° C.” value ([1]; in Polymer P7)?
A: 87 ppm

Q: And the “active-substance concentration, 0 d, RT” value ([1]; in Polymer P8)?
A: 250 ppm

Q: And the “active-substance concentration, 14 d, 40° C.” value ([1]; in Polymer P8)?
A: 206 ppm

Q: And the “active-substance concentration, 28 d, 40° C.” value ([1]; in Polymer P8)?
A: 176 ppm

Q: And the “active-substance concentration, 60 d 40° C.” value ([1]; in Polymer P8)?
A: 84 ppm

Q: And the “active-substance concentration, 0 d, RT” value ([1]; in Polymer P9)?
A: 250 ppm

Q: And the “active-substance concentration, 14 d, 40° C.” value ([1]; in Polymer P9)?
A: 191 ppm

Q: What about the “active-substance concentration, 28 d, 40° C.” value ([1]; in Polymer P9) of the same compound?
A: 160 ppm

Q: And the “active-substance concentration, 60 d 40° C.” value ([1]; in Polymer P9)?
A: 78 ppm

Q: What about the “Iodine color number, 60 d 40° C.” value ([2]; Polymer P1 with stabilizer) of the same compound?
A: 7.5

Q: And the “Iodine color number, start” value ([2]; Polymer P1 with stabilizer)?
A: 2.8

Q: And the “Iodine color number, 60 d 40° C.” value ([2]; Polymer P2 with stabilizer)?
A: 8.0

Q: And the “Iodine color number, start” value ([2]; Polymer P2 with stabilizer)?
A: 2.8

Q: What about the “Iodine color number, 60 d 40° C.” value ([2]; Polymer P3 with stabilizer) of the same compound?
A: 10.4

Q: And the “Iodine color number, start” value ([2]; Polymer P3 with stabilizer)?
A: 3.4

Q: And the “Iodine color number, 60 d 40° C.” value ([2]; Polymer P4 with stabilizer)?
A: 10.0

Q: What about the “Iodine color number, start” value ([2]; Polymer P4 with stabilizer) of the same compound?
A: 3.4

Q: What about the “Iodine color number, 60 d 40° C.” value [2, 5] of the same compound?
A: 11.7

Q: What about the “Iodine color number, start” value [2, 5] of the same compound?
A: 3.4

Q: And the “Iodine color number, 60 d 40° C.” value ([2]; Polymer P6 with stabilizer)?
A: 11.0

Q: And the “Iodine color number, start” value ([2]; Polymer P6 with stabilizer)?
A: 3.4

Q: And the “Iodine color number, 60 d 40° C.” value ([2]; Polymer P7 with stabilizer)?
A: 11.0

Q: What about the “Iodine color number, start” value ([2]; Polymer P7 with stabilizer) of the same compound?
A: 3.4

Q: What about the “Iodine color number, 60 d 40° C.” value ([2]; Polymer P8 with stabilizer) of the same compound?
A: 11.4

Q: And the “Iodine color number, start” value ([2]; Polymer P8 with stabilizer)?
A: 3.4

Q: What about the “Iodine color number, 60 d 40° C.” value ([2]; Polymer P9 with stabilizer) of the same compound?
A: 16.9

Q: And the “Iodine color number, start” value ([2]; Polymer P9 with stabilizer)?
A: 3.9

Q: And the “Start sample measurement, bact. assess., 4th inoculation” value ([3]; Polymer P1)?
A: − (slight growth, max. 100 colonies)

Q: And the “60 d 40° C., bact. assess., 4th inoculation” value ([3]; Polymer P1)?
A: 0 (moderate growth, max. 400 colonies)

Q: What about the “Start sample measurement, bact. assess., 4th inoculation” value ([3]; Polymer P2) of the same compound?
A: − (slight growth, max. 100 colonies)

Q: And the “60 d 40° C., bact. assess., 4th inoculation” value ([3]; Polymer P2)?
A: +

Q: And the “Start sample measurement, bact. assess., 4th inoculation” value ([3]; Polymer P3)?
A: − (slight growth, max. 100 colonies)

Q: What about the “60 d 40° C., bact. assess., 4th inoculation” value ([3]; Polymer P3) of the same compound?
A: +

Q: What about the “60 d 40° C., bact. assess., 4th inoculation” value ([3]; Polymer P4) of the same compound?
A: 0 (moderate growth, max. 400 colonies)

Q: What about the “Start sample measurement, bact. assess., 4th inoculation” value ([3]; Polymer P5 (HP56)) of the same compound?
A: − (slight growth, max. 100 colonies)

Q: And the “60 d 40° C., bact. assess., 4th inoculation” value ([3]; Polymer P5 (HP56))?
A: +

Q: What about the “60 d 40° C., bact. assess., 4th inoculation” value ([3]; Polymer P6) of the same compound?
A: +

Q: And the “60 d 40° C., bact. assess., 4th inoculation” value ([3]; Polymer P7)?
A: +

Q: What about the “Start sample measurement, bact. assess., 4th inoculation” value ([3]; Polymer P8) of the same compound?
A: − (slight growth, max. 100 colonies)

Q: And the “60 d 40° C., bact. assess., 4th inoculation” value ([3]; Polymer P8)?
A: +

Q: And the “60 d 40° C., bact. assess., 4th inoculation” value ([3]; Polymer P9)?
A: +

Q: What about the “Start sample measurement, yeast assess., 4th inoculation” value ([4]; Polymer P1) of the same compound?
A: − (slight growth, max. 100 colonies)

Q: And the “60 d 40° C., yeast assess., 4th inoculation” value ([4]; Polymer P1)?
A: + +

Q: What about the “Start sample measurement, yeast assess., 4th inoculation” value ([4]; Polymer P2) of the same compound?
A: − (slight growth, max. 100 colonies)

Q: And the “60 d 40° C., yeast assess., 4th inoculation” value ([4]; Polymer P2)?
A: +

Q: What about the “Start sample measurement, yeast assess., 4th inoculation” value ([4]; Polymer P3) of the same compound?
A: − (slight growth, max. 100 colonies)

Q: What about the “60 d 40° C., yeast assess., 4th inoculation” value ([4]; Polymer P3) of the same compound?
A: +

Q: What about the “Start sample measurement, yeast assess., 4th inoculation” value ([4]; Polymer P4) of the same compound?
A: − (slight growth, max. 100 colonies)

Q: What about the “60 d 40° C., yeast assess., 4th inoculation” value ([4]; Polymer P4) of the same compound?
A: ++

Q: And the “Start sample measurement, yeast assess., 4th inoculation” value ([4]; Polymer P5 (HP56))?
A: − (slight growth, max. 100 colonies)

Q: And the “60 d 40° C., yeast assess., 4th inoculation” value ([4]; Polymer P5 (HP56))?
A: +

Q: And the “Start sample measurement, yeast assess., 4th inoculation” value ([4]; Polymer P6)?
A: − (slight growth, max. 100 colonies)

Q: What about the “60 d 40° C., yeast assess., 4th inoculation” value ([4]; Polymer P6) of the same compound?
A: +

Q: What about the “Start sample measurement, yeast assess., 4th inoculation” value ([4]; Polymer P7) of the same compound?
A: − (slight growth, max. 100 colonies)

Q: And the “60 d 40° C., yeast assess., 4th inoculation” value ([4]; Polymer P7)?
A: +

Q: What about the “Start sample measurement, yeast assess., 4th inoculation” value ([4]; Polymer P8) of the same compound?
A: − (slight growth, max. 100 colonies)

Q: What about the “60 d 40° C., yeast assess., 4th inoculation” value ([4]; Polymer P8) of the same compound?
A: +

Q: What about the “Start sample measurement, yeast assess., 4th inoculation” value ([4]; Polymer P9) of the same compound?
A: − (slight growth, max. 100 colonies)

Q: What about the “60 d 40° C., yeast assess., 4th inoculation” value ([4]; Polymer P9) of the same compound?
A: +
